Measured values reported in US7358376B2, “Substituted Thiophene compounds” (AstraZeneca AB, priority 2000, dated 2008).

Row | melting point | SMILES
1 | > 300 °C | COc1ccc(-c2cc(NC(N)=O)c(C(N)=O)s2)cc1 [Example 4, 3-[(Aminocarbonyl)amino]-5-(4-methoxyphenyl)-2-thiophenecarboxamide]
2 | > 300 °C | CN(C)CCOc1ccc(-c2cc(NC(N)=O)c(C(N)=O)s2)cc1 [Example 10, 3-[(Aminocarbonyl)amino]-5-{4-[2-(dimethylamino)ethoxy]phenyl}-2-thiophenecarboxamide]
3 | > 300 °C | NC(=O)Nc1cc(-c2ccccc2Cl)sc1C(N)=O [Example 7, 3-[(Aminocarbonyl)amino]5-(2-chlorophenyl)-2-thiophenecarboxamide]
4 | 180 °C | CN(C)CCOc1ccccc1-c1cc(NC(N)=O)c(C(N)=O)s1 [Example 9, 3-[(Aminocarbonyl)amino]-5-{2-[2-(dimethylamino)ethoxy]phenyl}-2-thiophenecarboxamide]
